Experimental data from patent publication US9505728B2, “Triazolone compounds and uses thereof” (INCEPTION 2, INC., priority 2012, dated 2016).

Biological target: T1, Human PPARα (Homo sapiens, UniProt Q07869)
T1 construct: host or cells: proprietary non-human mammalian cells
T1 sequence (Q07869 1-468): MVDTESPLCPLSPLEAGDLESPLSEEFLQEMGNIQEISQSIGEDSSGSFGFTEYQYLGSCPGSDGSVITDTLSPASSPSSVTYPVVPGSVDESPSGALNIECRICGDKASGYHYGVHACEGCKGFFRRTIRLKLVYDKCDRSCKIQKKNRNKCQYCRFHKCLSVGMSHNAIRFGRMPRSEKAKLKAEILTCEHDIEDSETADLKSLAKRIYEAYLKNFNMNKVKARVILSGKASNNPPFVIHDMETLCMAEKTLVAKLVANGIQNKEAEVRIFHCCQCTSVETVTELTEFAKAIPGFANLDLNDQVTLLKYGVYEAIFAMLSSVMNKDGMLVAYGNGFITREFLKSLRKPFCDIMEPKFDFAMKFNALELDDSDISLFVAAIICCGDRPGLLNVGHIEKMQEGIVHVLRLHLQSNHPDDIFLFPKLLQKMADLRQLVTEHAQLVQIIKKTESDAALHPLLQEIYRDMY
Assay: Human PPARα Reporter Assay (luciferase)
Assay type: cell-based
Details: human PPARα reporter cells, overnight incubation, antagonism; read-out: Luciferase IC50
Outline: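 Agonist or antagonist activity read as luciferase light from engineered reporter cells carrying human PPARα and a responsive reporter gene. Cells got compound immediately on dispensing, incubated overnight, then treatment media swapped for luciferase detection reagent.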

| SMILES | IC50 |
| --- | --- |
| CCn1c(CCCc2ccc(-c3cccc(N)n3)cc2)nn(Cc2ccc(C(C)(C)C)cc2)c1=O [Example 3, 3-(3-(4-(6-Aminopyridin-2-yl)phenyl)propyl)-1-(4-(tert-butyl)benzyl)-4-ethyl-1H-1,2,4-triazol-5(4H)-one] | 271 nM |
| CCn1c(CCCc2ccc(-c3ccc(NS(=O)(=O)c4ccc(Cl)cc4)cn3)cc2)nn(Cc2ccc(C(C)(C)C)cc2)c1=O [Example 90, 1-{[4-(tert-Butyl)phenyl]methyl}-3-{3-[4-(5-{[(4-chlorophenyl)sulfonyl]amino}(2-pyridyl))phenyl]propyl}-4-ethyl-1,2,4-triazolin-5-one] | 487 nM |
| CCn1c(CCCc2ccc(-c3cccc(CC(=O)NS(=O)(=O)c4ccccc4)c3)cc2)nn(Cc2ccc(C(C)(C)C)cc2)c1=O [Example 8, 2-(4′-(3-(1-(4-(tert-Butyl)benzyl)-4-ethyl-5-oxo-4,5-dihydro-1H-1,2,4-triazol-3-yl)propyl)-[1,1′-biphenyl]-3-yl)-N-(phenylsulfonyl) acetamide] | 304 nM |
| CCn1c(CCCc2ccc(-c3ccc(C(=O)C(=O)NC4CC4)cc3)cc2)nn(Cc2ccc(C(C)(C)C)cc2)c1=O [Example 52, 2-(4′-(3-(1-(4-(tert-Butyl)benzyl)-4-ethyl-5-oxo-4,5-dihydro-1H-1,2,4-triazol-3-yl)propyl)-[1,1′-biphenyl]-4-yl)-N-cyclopropyl-2-oxoacetamide] | 440 nM |
| CCn1c(CCCc2ccc(-c3ccc(OC)c(CC(=O)NS(=O)(=O)c4ccccc4)c3)cc2)nn(Cc2ccc(C(C)(C)C)cc2)c1=O [Example 136, 2-(4′-(3-(1-(4-(tert-Butyl)benzyl)-4-ethyl-5-oxo-4,5-dihydro-1H-1,2,4-triazol-3-yl)propyl)-4-methoxy-[1,1′-biphenyl]-3-yl)-N-(phenylsulfonyl)acetamide] | 41 nM |
| CCCc1ccc(S(=O)(=O)Nc2cccc(-c3ccc(CCCc4nn(Cc5ccc(C(C)(C)C)cc5)c(=O)n4CC)cc3)n2)cc1 [Example 72, 1-{[4-(tert-Butyl)phenyl]methyl}-4-ethyl-3-{3-[4-(6-{[(4-propylphenyl)sulfonyl]amino}(2-pyridyl))phenyl]propyl}-1,2,4-triazolin-5-one] | 208 nM |
| CCn1c(CCCc2ccc(-c3ccc(F)c(CC(=O)O)c3)cc2)nn(Cc2ccc(C(C)(C)C)cc2)c1=O [Example 33, 2-(4′-(3-(1-(4-(tert-Butyl)benzyl)-4-ethyl-5-oxo-4,5-dihydro-1H-1,2,4-triazol-3-yl)propyl)-4-fluoro-[1,1′-biphenyl]-3-yl)acetic acid] | 427 nM |
| CCn1c(CCCc2ccc(-c3ccc(OC)c(CC(=O)O)c3)cc2)nn(Cc2ccc(C3(F)COC3)cc2)c1=O [Example 63] | 562 nM |
| CCn1c(CCCc2ccc(-c3ccc(C(F)(F)F)c(C(=O)O)c3)cc2)nn(Cc2ccc(C(C)(C)C)cc2)c1=O [Example 134, 4′-(3-(1-(4-(tert-Butyl)benzyl)-4-ethyl-5-oxo-4,5-dihydro-1H-1,2,4-triazol-3-yl)propyl)-4-(trifluoromethyl)-[1,1′-biphenyl]-3-carboxylic acid] | 109 nM |
| CCn1c(CCCc2ccc(-c3cc(C(=O)O)c(OC)cn3)cc2)nn(Cc2ccc(C(C)(C)C)cc2)c1=O [Example 140, 2-(4-(3-(1-(4-(tert-Butyl)benzyl)-4-ethyl-5-oxo-4,5-dihydro-1H-1,2,4-triazol-3-yl)propyl)phenyl)-5-methoxyisonicotinic acid] | 396 nM |
| CCn1c(CCCc2ccc(-c3cccc(NS(=O)(=O)c4ccc(-c5ccc(OC)cc5)cc4)n3)cc2)nn(Cc2ccc(C(C)(C)C)cc2)c1=O [Example 74, 1-{[4-(tert-Butyl)phenyl]methyl}-4-ethyl-3-(3-{4-[6-({[4-(4-methoxyphenyl)phenyl]sulfonyl}amino)(2-pyridyl)]phenyl}propyl)-1,2,4-triazolin-5-one] | 945 nM |
| CCn1c(CCCc2ccc(-c3ccc(S(=O)(=O)NCc4ccccc4)cc3)cc2)nn(Cc2ccc(C(C)(C)C)cc2)c1=O [Example 99, N-benzyl-4′-(3-(1-(4-(tert-butyl)benzyl)-4-ethyl-5-oxo-4,5-dihydro-1H-1,2,4-triazol-3-yl)propyl)-[1,1′-biphenyl]-4-sulfonamide] | 524 nM |
| CCn1c(CCCc2ccc(-c3cc(C(=O)O)cc(C(F)(F)F)c3)cc2)nn(Cc2ccc(C(C)(C)C)cc2)c1=O [Example 41, 4′-(3-(1-(4-(tert-Butyl)benzyl)-4-ethyl-5-oxo-4,5-dihydro-1H-1,2,4-triazol-3-yl)propyl)-5-(trifluoromethyl)-[1,1′-biphenyl]-3-carboxylic acid] | 510 nM |
| CCn1c(CCCc2ccc(-c3cc(CC(=O)O)ccc3OC)cc2)nn(Cc2ccc(C(C)(C)C)cc2)c1=O [Example 20, 2-(4′-(3-(1-(4-(tert-Butyl)benzyl)-4-ethyl-5-oxo-4,5-dihydro-1H-1,2,4-triazol-3-yl)propyl)-6-methoxy-[1,1′-biphenyl]-3-yl)acetic acid] | 1830 nM |
| CC(C)(C)c1ccc(Cn2nc(CCCc3ccc(-c4cccc(CC(=O)O)c4)cc3)n(CC3CC3)c2=O)cc1 [Example 53, 2-(4′-(3-(1-(4-(tert-Butyl)benzyl)-4-(cyclopropylmethyl)-5-oxo-4,5-dihydro-1H-1,2,4-triazol-3-yl)propyl)-[1,1′-biphenyl]-3-yl)acetic acid] | 363 nM |
| CCn1c(CCCc2ccc(-c3cncc(NS(=O)(=O)c4ccccc4)n3)cc2)nn(Cc2ccc(C(C)(C)C)cc2)c1=O [Example 129, N-(6-(4-(3-(1-(4-(tert-Butyl)benzyl)-4-ethyl-5-oxo-4,5-dihydro-1H-1,2,4-triazol-3-yl)propyl)phenyl)pyrazin-2-yl)benzenesulfonamide] | 36 nM |
| CCn1c(CCCc2ccc(-c3cccc(NS(=O)(=O)c4ccc(OC)cc4)n3)cc2)nn(Cc2ccc(C(C)(C)C)cc2)c1=O [Example 84, 1-{[4-(tert-Butyl)phenyl]methyl}-4-ethyl-3-{3-[4-(6-{[(4-methoxyphenyl)sulfonyl]amino}(2-pyridyl))phenyl]propyl}-1,2,4-triazolin-5-one] | 208 nM |
| CCn1c(CCCc2ccc(-c3ccc(C(O)C(=O)NC4CC4)cc3)cc2)nn(Cc2ccc(C(C)(C)C)cc2)c1=O (stereo not drawn) [Example 51, 2-(4′-(3-(1-(4-(tert-Butyl)benzyl)-4-ethyl-5-oxo-4,5-dihydro-1H-1,2,4-triazol-3-yl)propyl)-[1,1′-biphenyl]-4-yl)-N-cyclopropyl-2-hydroxyacetamide] | 292 nM |
| CCn1c(CCCc2ccc(-c3ccc(OC)c(NS(=O)(=O)Cc4ccccc4)n3)cc2)nn(Cc2ccc(C(C)(C)C)cc2)c1=O [Example 87, 1-{[4-(tert-Butyl)phenyl]methyl}-4-ethyl-3-{3-[4-(5-methoxy-6-{[benzylsulfonyl]amino}(2-pyridyl))phenyl]propyl}-1,2,4-triazolin-5-one] | 10 nM |
| CCn1c(CCCc2ccc(-c3ccc(OC)c(CCC(=O)O)c3)cc2)nn(Cc2ccc(C(C)(C)C)cc2)c1=O [Example 179, 3-(5-{4-[3-(1-{[4-(tert-Butyl)phenyl]methyl}-4-ethyl-5-oxo(1,2,4-triazolin-3-yl))propyl]phenyl}-2-methoxyphenyl)propanoic acid] | 121 nM |
| CCn1c(CCCc2ccc(-c3cccc(CC(=O)O)c3)cc2)nn(Cc2ccc(C(C)(C)C)c(Br)c2)c1=O [Example 67, 2-(4′-(3-(1-(3-Bromo-4-(tert-butyl)benzyl)-4-ethyl-5-oxo-4,5-dihydro-1H-1,2,4-triazol-3-yl)propyl)-[1,1′-biphenyl]-3-yl)acetic acid] | 88 nM |
